Assay results published in the NIST ThermoML archive (doi:10.1021/je8007759).
± gives the expanded uncertainty stated by the source.

Test: xn = mol fraction of the nth substance listed

CC1CCC(=O)O1 (stereo not given) [γ-valerolactone] + O=C=O
Fluid (supercritical or subcritical phases), Pycnometric method
Conditions | mass density [kg/m3]
327.9 K, 12360 kPa, x1 = 0.1 | 876 ± 5
327.9 K, 12500 kPa, x1 = 0.05 | 784 ± 6
327.9 K, 12510 kPa, x1 = 0.025 | 726 ± 6
327.9 K, 12630 kPa, x1 = 0.01 | 657 ± 8
327.9 K, 12640 kPa, x1 = 0.15 | 937 ± 4
327.9 K, 12700 kPa, x1 = 0.05 | 790 ± 5
327.9 K, 12720 kPa, x1 = 0.025 | 735 ± 8
327.9 K, 12740 kPa, x1 = 0.1 | 882 ± 5
327.9 K, 12920 kPa, x1 = 0.05 | 795 ± 5
327.9 K, 13010 kPa, x1 = 0.025 | 745 ± 8
327.9 K, 13120 kPa, x1 = 0.15 | 941 ± 4
327.9 K, 13130 kPa, x1 = 0.1 | 888 ± 4
327.9 K, 13160 kPa, x1 = 0.05 | 800 ± 5
327.9 K, 13320 kPa, x1 = 0.025 | 755 ± 6
327.9 K, 13370 kPa, x1 = 0.1 | 891 ± 4
327.9 K, 13410 kPa, x1 = 0.05 | 805 ± 5
327.9 K, 13520 kPa, x1 = 0.15 | 943 ± 4
327.9 K, 13640 kPa, x1 = 0.1 | 894 ± 5
327.9 K, 13660 kPa, x1 = 0.025 | 765 ± 6
327.9 K, 13700 kPa, x1 = 0.05 | 811 ± 5
327.9 K, 13980 kPa, x1 = 0.15 | 947 ± 4
327.9 K, 14010 kPa, x1 = 0.05 | 817 ± 5
327.9 K, 14060 kPa, x1 = 0.025 | 776 ± 5
327.9 K, 14180 kPa, x1 = 0.1 | 900 ± 4
327.9 K, 14330 kPa, x1 = 0.05 | 823 ± 5
327.9 K, 14440 kPa, x1 = 0.15 | 949 ± 4
327.9 K, 14700 kPa, x1 = 0.05 | 829 ± 5
327.9 K, 14780 kPa, x1 = 0.1 | 907 ± 4
327.9 K, 14900 kPa, x1 = 0.15 | 952 ± 4
327.9 K, 15080 kPa, x1 = 0.05 | 835 ± 5
327.9 K, 15410 kPa, x1 = 0.1 | 913 ± 4
327.9 K, 15460 kPa, x1 = 0.15 | 956 ± 4
327.9 K, 15940 kPa, x1 = 0.15 | 959 ± 4
327.9 K, 16050 kPa, x1 = 0.1 | 919 ± 4
327.9 K, 16480 kPa, x1 = 0.15 | 962 ± 4
327.9 K, 17080 kPa, x1 = 0.15 | 965 ± 4
332.8 K, 12270 kPa, x1 = 0.025 | 651 ± 9
332.8 K, 12280 kPa, x1 = 0.025 | 652 ± 8
332.8 K, 12340 kPa, x1 = 0.025 | 655 ± 9
332.8 K, 12390 kPa, x1 = 0.025 | 659 ± 8
332.8 K, 12460 kPa, x1 = 0.025 | 663 ± 8
332.8 K, 12530 kPa, x1 = 0.025 | 667 ± 6
332.8 K, 12600 kPa, x1 = 0.025 | 671 ± 7
332.8 K, 12680 kPa, x1 = 0.025 | 675 ± 6
332.8 K, 12840 kPa, x1 = 0.025 | 683 ± 9
332.8 K, 12980 kPa, x1 = 0.025 | 690 ± 9
332.8 K, 13130 kPa, x1 = 0.025 | 696 ± 9
332.8 K, 13420 kPa, x1 = 0.025 | 710 ± 8
332.8 K, 13670 kPa, x1 = 0.025 | 718 ± 9
332.8 K, 13940 kPa, x1 = 0.025 | 728 ± 6
332.8 K, 14270 kPa, x1 = 0.025 | 738 ± 5
332.8 K, 14540 kPa, x1 = 0.025 | 744 ± 5
332.8 K, 14820 kPa, x1 = 0.025 | 752 ± 5
332.8 K, 15190 kPa, x1 = 0.025 | 761 ± 5
332.9 K, 11320 kPa, x1 = 0.01 | 487 ± 13
332.9 K, 11330 kPa, x1 = 0.01 | 488 ± 13
332.9 K, 11340 kPa, x1 = 0.01 | 490 ± 12
332.9 K, 11350 kPa, x1 = 0.01 | 491 ± 12
332.9 K, 11370 kPa, x1 = 0.01 | 493 ± 12
332.9 K, 11380 kPa, x1 = 0.01 | 494 ± 12
332.9 K, 11400 kPa, x1 = 0.01 | 496 ± 12
332.9 K, 11410 kPa, x1 = 0.01 | 497 ± 12
332.9 K, 11420 kPa, x1 = 0.01 | 498 ± 11
332.9 K, 11440 kPa, x1 = 0.01 | 500 ± 12
332.9 K, 11450 kPa, x1 = 0.01 | 501 ± 5
332.9 K, 11470 kPa, x1 = 0.01 | 503 ± 11
332.9 K, 11490 kPa, x1 = 0.01 | 506 ± 15
332.9 K, 11520 kPa, x1 = 0.01 | 509 ± 8
332.9 K, 11560 kPa, x1 = 0.01 | 511 ± 11
332.9 K, 11600 kPa, x1 = 0.01 | 515 ± 11
332.9 K, 11630 kPa, x1 = 0.01 | 518 ± 11
332.9 K, 11660 kPa, x1 = 0.01 | 521 ± 11
332.9 K, 11700 kPa, x1 = 0.01 | 524 ± 11
332.9 K, 11730 kPa, x1 = 0.01 | 527 ± 11
332.9 K, 11770 kPa, x1 = 0.01 | 531 ± 10
332.9 K, 11810 kPa, x1 = 0.01 | 534 ± 24
332.9 K, 11850 kPa, x1 = 0.01 | 537 ± 10
332.9 K, 11890 kPa, x1 = 0.01 | 540 ± 9
332.9 K, 11940 kPa, x1 = 0.01 | 543 ± 25
332.9 K, 11990 kPa, x1 = 0.01 | 547 ± 25
332.9 K, 12040 kPa, x1 = 0.01 | 551 ± 11
332.9 K, 12090 kPa, x1 = 0.01 | 554 ± 6
332.9 K, 12140 kPa, x1 = 0.01 | 558 ± 4
332.9 K, 12190 kPa, x1 = 0.01 | 561 ± 18
332.9 K, 12240 kPa, x1 = 0.01 | 565 ± 14
332.9 K, 12290 kPa, x1 = 0.01 | 569 ± 9
332.9 K, 12340 kPa, x1 = 0.01 | 573 ± 9
332.9 K, 12390 kPa, x1 = 0.01 | 576 ± 9
332.9 K, 12460 kPa, x1 = 0.01 | 580 ± 8
332.9 K, 12530 kPa, x1 = 0.01 | 584 ± 8
332.9 K, 12590 kPa, x1 = 0.01 | 588 ± 8
332.9 K, 12600 kPa, x1 = 0.15 | 914 ± 4
332.9 K, 12670 kPa, x1 = 0.01 | 592 ± 8
332.9 K, 12750 kPa, x1 = 0.15 | 916 ± 4
332.9 K, 12800 kPa, x1 = 0.01 | 600 ± 8
332.9 K, 12820 kPa, x1 = 0.05 | 743 ± 6
332.9 K, 12860 kPa, x1 = 0.05 | 743 ± 7
332.9 K, 12920 kPa, x1 = 0.05 | 746 ± 6
332.9 K, 12950 kPa, x1 = 0.01 | 608 ± 8
332.9 K, 13060 kPa, x1 = 0.05 | 751 ± 6
332.9 K, 13070 kPa, x1 = 0.1 | 854 ± 9
332.9 K, 13090 kPa, x1 = 0.15 | 919 ± 4
332.9 K, 13110 kPa, x1 = 0.01 | 617 ± 8
332.9 K, 13170 kPa, x1 = 0.1 | 856 ± 9
332.9 K, 13220 kPa, x1 = 0.05 | 755 ± 6
332.9 K, 13270 kPa, x1 = 0.1 | 858 ± 5
332.9 K, 13330 kPa, x1 = 0.01 | 628 ± 7
332.9 K, 13380 kPa, x1 = 0.05 | 760 ± 6
332.9 K, 13420 kPa, x1 = 0.1 | 861 ± 5
332.9 K, 13440 kPa, x1 = 0.15 | 922 ± 4
332.9 K, 13550 kPa, x1 = 0.05 | 766 ± 5
332.9 K, 13550 kPa, x1 = 0.1 | 863 ± 6
332.9 K, 13730 kPa, x1 = 0.1 | 865 ± 5
332.9 K, 13730 kPa, x1 = 0.15 | 925 ± 4
332.9 K, 13760 kPa, x1 = 0.05 | 770 ± 5
332.9 K, 13890 kPa, x1 = 0.1 | 867 ± 6
332.9 K, 13960 kPa, x1 = 0.05 | 776 ± 5
332.9 K, 14060 kPa, x1 = 0.1 | 870 ± 5
332.9 K, 14160 kPa, x1 = 0.05 | 781 ± 5
332.9 K, 14250 kPa, x1 = 0.15 | 928 ± 4
332.9 K, 14260 kPa, x1 = 0.1 | 873 ± 5
332.9 K, 14400 kPa, x1 = 0.05 | 786 ± 5
332.9 K, 14470 kPa, x1 = 0.1 | 876 ± 4
332.9 K, 14620 kPa, x1 = 0.15 | 931 ± 4
332.9 K, 14680 kPa, x1 = 0.05 | 792 ± 5
332.9 K, 14680 kPa, x1 = 0.1 | 878 ± 5
332.9 K, 14960 kPa, x1 = 0.05 | 798 ± 5
332.9 K, 15000 kPa, x1 = 0.15 | 933 ± 4
332.9 K, 15140 kPa, x1 = 0.1 | 884 ± 5
332.9 K, 15260 kPa, x1 = 0.05 | 803 ± 5
332.9 K, 15420 kPa, x1 = 0.1 | 888 ± 4
332.9 K, 15420 kPa, x1 = 0.15 | 937 ± 4
332.9 K, 15550 kPa, x1 = 0.05 | 809 ± 5
332.9 K, 15660 kPa, x1 = 0.1 | 891 ± 4
332.9 K, 15840 kPa, x1 = 0.15 | 940 ± 4
332.9 K, 15950 kPa, x1 = 0.1 | 894 ± 5
332.9 K, 16260 kPa, x1 = 0.1 | 897 ± 4
332.9 K, 16380 kPa, x1 = 0.15 | 943 ± 4
332.9 K, 16560 kPa, x1 = 0.1 | 900 ± 4
332.9 K, 16870 kPa, x1 = 0.1 | 904 ± 4
332.9 K, 17190 kPa, x1 = 0.1 | 907 ± 4
337.9 K, 14310 kPa, x1 = 0.1 | 841 ± 5
337.9 K, 14470 kPa, x1 = 0.1 | 844 ± 5
337.9 K, 14580 kPa, x1 = 0.1 | 846 ± 5
337.9 K, 14740 kPa, x1 = 0.1 | 848 ± 4
337.9 K, 14900 kPa, x1 = 0.1 | 851 ± 5
337.9 K, 15020 kPa, x1 = 0.1 | 852 ± 5
337.9 K, 15200 kPa, x1 = 0.1 | 855 ± 5
337.9 K, 15360 kPa, x1 = 0.1 | 857 ± 5
337.9 K, 15580 kPa, x1 = 0.1 | 859 ± 5
337.9 K, 15740 kPa, x1 = 0.1 | 862 ± 5
337.9 K, 15940 kPa, x1 = 0.1 | 864 ± 5
337.9 K, 16190 kPa, x1 = 0.1 | 868 ± 5
337.9 K, 16420 kPa, x1 = 0.1 | 871 ± 5
337.9 K, 16660 kPa, x1 = 0.1 | 874 ± 4
337.9 K, 16920 kPa, x1 = 0.1 | 877 ± 5
337.9 K, 17400 kPa, x1 = 0.1 | 883 ± 4

mass density [kg/m3], high pressure variable cell
Conditions | 327.9 K | 332.8 K | 332.9 K
Gas, x1 = 0.01 | 496 ± 4 | – | 486 ± 4
Gas, x1 = 0.025 | 660 ± 4 | 649 ± 5 | –
Gas, x1 = 0.05 | 753 ± 4 | – | 742 ± 4
Liquid, x1 = 0.1 | 863 ± 4 | – | 851 ± 4
Liquid, x1 = 0.15 | 925 ± 4 | – | 913 ± 4

Liquid, high pressure variable cell
Conditions | Critical density [kg/m3]
x1 = 0.025 | 679 ± 16
x1 = 0.05 | 774 ± 18
x1 = 0.1 | 837 ± 19
